# How the values were obtained:
# [1] = Clinical DDI study: plasma pharmacokinetics of probe drugs; details: for increase of AUCinf on coadministration of capmatinib / increase of AUClast on coadministration of capmatinib / increase of Cmax on coadministration of capmatinib: compared to probe drug alone; for AUC(0-inf) / AUC(0-t) / Cmax / half-life / Tmax: human, in vivo; for AUC(0-inf): AUCinf; for AUC(0-t): AUClast; for half-life: T1/2, geo‐mean (geo‐CV%); for Tmax: median (min, max); for AUCinf geo‐mean ratio (90% CI) / AUClast geo‐mean ratio (90% CI) / Cmax geo‐mean ratio (90% CI): probe drug + capmatinib vs probe drug alone
# [2] = cited from earlier work
# [3] = adjusted geo‐mean, probe drug + capmatinib, linear mixed effects model
# [4] = adjusted geo‐mean, probe drug alone, linear mixed effects model
# [5] = geo‐mean (geo‐CV%), probe drug + capmatinib 400 mg twice daily, Day 22, plasma
# [6] = geo‐mean (geo‐CV%), probe drug alone, Day 1, plasma
# [7] = probe drug + capmatinib 400 mg twice daily, Day 22
increase of AUCinf on coadministration of capmatinib [1],increase of AUClast on coadministration of capmatinib [1],increase of Cmax on coadministration of capmatinib [1],"AUC(0-inf) [1, 3]","AUC(0-inf) [1, 4]","AUC(0-t) [1, 3]","AUC(0-t) [1, 4]","AUC(0-t) [1, 5]","AUC(0-t) [1, 6]","Cmax [1, 4]","Cmax [1, 6]","half-life ([1]; probe drug alone, Day 1)","Tmax ([1]; probe drug alone, Day 1)",SMILES,further results
47%,63%,74%,0.0329 µg·h/mL,0.0224 µg·h/mL,0.0238 µg·h/mL,0.0146 µg·h/mL,0.0238 µg·h/mL,0.0146 µg·h/mL,1.12 ng/mL,1.12 ng/mL,47 h,1.07 h,C[C@H]1O[C@@H](O[C@H]2[C@@H](O)C[C@H](O[C@H]3[C@@H](O)C[C@H](O[C@H]4CC[C@@]5(C)[C@H](CC[C@@H]6[C@@H]5C[C@@H](O)[C@]5(C)[C@@H](C7=CC(=O)OC7)CC[C@]65O)C4)O[C@@H]3C)O[C@@H]2C)C[C@H](O)[C@@H]1O [digoxin],"half-life [1, 7]: 61.4 h; T1/2 ([2]; healthy subjects with normal renal function): 36 to 48 h; time of peak serum concentrations ([2]; oral administration): 1 to 3 h"
108%,103%,204%,0.156 µg·h/mL,0.0752 µg·h/mL,0.144 µg·h/mL,0.071 µg·h/mL,0.144 µg·h/mL,0.071 µg·h/mL,7.72 ng/mL,7.72 ng/mL,22 h,2.04 h,CC(C)c1nc(N(C)S(C)(=O)=O)nc(-c2ccc(F)cc2)c1/C=C/[C@@H](O)C[C@@H](O)CC(=O)O [rosuvastatin],"Cmax [1, 3]: 23.5 ng/mL; Cmax [1, 5]: 23.5 ng/mL; Tmax [1, 7]: 1.55 h; AUCinf geo‐mean ratio (90% CI) [1]: 2.08 (1.56, 2.76); AUClast geo‐mean ratio (90% CI) [1]: 2.03 (1.61, 2.56); Cmax geo‐mean ratio (90% CI) [1]: 3.04 (2.36, 3.92); AUCinf geo‐mean ratio (90% CI) ([1]; listed as Rosuvastatin): 2.08 (1.56–2.76); AUClast geo‐mean ratio (90% CI) ([1]; listed as Rosuvastatin): 2.03 (1.61–2.56); Cmax geo‐mean ratio (90% CI) ([1]; listed as Rosuvastatin): 3.04 (2.36–3.92)"

# Source: paper PMC8359310 (British Journal of Clinical Pharmacology, 2020)
